Measurements reported in PubChem BioAssay AID330 (DTP/NCI, 2004).
Inconclusive results and toxic doses are left out. The calls were made as follows: active = survival T/C of 150% or more; inactive = T/C below 125% in these data.

Test system: P388 leukemia ip, CD2F1 mice, survival T/C
Assay: NCI In Vivo Anticancer Drug Screen. Data for tumor model P388 Leukemia (intraperitoneal) in CD2F1 (CDF1) mice
Details: endpoint: median survival time, higher = longer survival
Summary of the method: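 Mice carrying the transplanted tumor received test compound or vehicle. Survival was recorded in each group, and the value is the treated-group measurement divided by that of the vehicle-treated control group.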

[1] = dose: 50.0 mg/kg/injection, schedule: Q01DX009 (ip), vehicle: saline with Tween-80
[2] = dose: 100.0 mg/kg/injection, schedule: Q01DX009 (ip), vehicle: saline with Tween-80
[3] = dose: 200.0 mg/kg/injection, schedule: Q01DX009 (ip), vehicle: saline with Tween-80
[4] = dose: 12.5 mg/kg/injection, schedule: Q01DX009 (ip), vehicle: saline with Tween-80
[5] = dose: 25.0 mg/kg/injection, schedule: Q01DX009 (ip), vehicle: saline with Tween-80
[6] = dose: 60.0 mg/kg/injection, schedule: Q01DX005 (ip), vehicle: Klucel (hydroxypropylcellulose) (HPC)
[7] = dose: 120.0 mg/kg/injection, schedule: Q01DX005 (ip), vehicle: Klucel (hydroxypropylcellulose) (HPC)
[8] = dose: 50.0 mg/kg/injection, schedule: Q01DX009 (ip), vehicle: Klucel (hydroxypropylcellulose) (HPC)
[9] = dose: 100.0 mg/kg/injection, schedule: Q01DX009 (ip), vehicle: Klucel (hydroxypropylcellulose) (HPC)
[10] = dose: 200.0 mg/kg/injection, schedule: Q01DX009 (ip), vehicle: Klucel (hydroxypropylcellulose) (HPC)
[11] = dose: 25.0 mg/kg/injection, schedule: Q01DX009 (ip), vehicle: Klucel (hydroxypropylcellulose) (HPC)
[12] = dose: 60.0 mg/kg/injection, schedule: Q01DX005 (ip), vehicle: saline with Tween-80
[13] = dose: 120.0 mg/kg/injection, schedule: Q01DX005 (ip), vehicle: saline with Tween-80
[14] = dose: 240.0 mg/kg/injection, schedule: Q01DX005 (ip), vehicle: saline with Tween-80
[15] = dose: 50.0 mg/kg/injection, schedule: Q01DX005 (ip), vehicle: saline with Tween-80
[16] = dose: 100.0 mg/kg/injection, schedule: Q01DX005 (ip), vehicle: saline with Tween-80
[17] = dose: 200.0 mg/kg/injection, schedule: Q01DX005 (ip), vehicle: saline with Tween-80

Measured: T/C

O=C(c1ccccc1)C(O)NC(=S)c1ccc(Cl)cc1 (configuration not stated)
inactive: [1] 107 % of control | [2] 113 % of control | [3] 113 % of control

Fc1ccc(N(c2nc(Cl)nc(Cl)n2)c2nc(Cl)nc(Cl)n2)cc1
inactive: [4] 113 % of control | [5] 100 % of control | [1] 113 % of control

CC1(C)COC2(OCC(COc3ccccc3)O2)C1O (configuration not stated)
inactive: [6] 104 % of control | [7] 98 % of control | dose: 240.0 mg/kg/injection, schedule: Q01DX005 (ip), vehicle: Klucel (hydroxypropylcellulose) (HPC) 98 % of control

COC(=O)C1C/C=C\C=C/N(C)C1=O (configuration not stated)
inactive: dose: 100.0 mg/kg/injection, schedule: Q04DX002 (ip), vehicle: saline with Tween-80 102 % of control | dose: 200.0 mg/kg/injection, schedule: Q04DX002 (ip), vehicle: saline with Tween-80 101 % of control | dose: 400.0 mg/kg/injection, schedule: Q04DX002 (ip), vehicle: saline with Tween-80 101 % of control

CN(C)CSc1nc2ccccc2s1
inactive: [8] 96 % of control | [9] 94 % of control | [10] 94 % of control | dose: 400.0 mg/kg/injection, schedule: Q01DX009 (ip), vehicle: Klucel (hydroxypropylcellulose) (HPC) 95 % of control

N#Cc1ccc(N=Cc2ccc(C=Nc3ccc(C#N)c(C#N)c3)cc2)cc1C#N
inactive: [4] 93 % of control | [5] 104 % of control | [1] 88 % of control | [2] 87 % of control | [3] 97 % of control

Cc1[nH]c(=O)[nH]c(=O)c1/C=C/C(=O)O
inactive: [11] 100 % of control | [8] 100 % of control | [9] 102 % of control | [10] 102 % of control

CC(/C=C/c1ccccc1)=N\NC(=S)Nc1ccc(Br)cc1
inactive: dose: 100.0 mg/kg/injection, schedule: Q04DX002 (ip), vehicle: Klucel (hydroxypropylcellulose) (HPC) 97 % of control

O=C(c1ccccc1)N1OCCc2ccccc21
inactive: [12] 100 % of control | [13] 104 % of control | [14] 96 % of control

O=C1C(CN2CCCCC2)=C(O)C(c2ccccc2)N1c1ccccc1 (configuration not stated)
inactive: [12] 96 % of control | [13] 95 % of control | [14] 97 % of control

COc1ccc(N=C2C(=Nc3ccc(OC)cc3)N(c3ccc(OC)cc3)C(=S)N2C(=O)c2ccc(Cl)cc2)cc1
inactive: dose: 50.0 mg/kg/injection, schedule: Q01DX005 (ip), vehicle: Klucel + Tween-80 90 % of control | dose: 100.0 mg/kg/injection, schedule: Q01DX005 (ip), vehicle: Klucel + Tween-80 93 % of control | dose: 200.0 mg/kg/injection, schedule: Q01DX005 (ip), vehicle: Klucel + Tween-80 90 % of control

O=C(NCC(CC(NC(=O)c1ccccc1)C(=O)O)NC(=O)c1ccccc1)c1ccccc1 (configuration not stated)
inactive: dose: 12.5 mg/kg/injection, schedule: Q01DX009 (ip), vehicle: Klucel (hydroxypropylcellulose) (HPC) 89 % of control | [11] 91 % of control | [8] 93 % of control | [9] 89 % of control | [10] 90 % of control

O=C1NC(=O)C(Cc2ccccc2)(Cc2ccccc2)S1
inactive: [12] 100 % of control | [13] 103 % of control | [14] 96 % of control

N#CC1=C2CCCCC2(O)NC1=O (configuration not stated)
inactive: dose: 6.25 mg/kg/injection, schedule: Q01DX005 (ip), vehicle: Klucel (hydroxypropylcellulose) (HPC) 108 % of control | dose: 12.5 mg/kg/injection, schedule: Q01DX005 (ip), vehicle: Klucel (hydroxypropylcellulose) (HPC) 115 % of control

CSc1ccc(NC(=O)Nc2nccs2)cc1
inactive: dose: 100.0 mg/kg/injection, schedule: Q04DX003 (ip), vehicle: saline with Tween-80 95 % of control | dose: 200.0 mg/kg/injection, schedule: Q04DX003 (ip), vehicle: saline with Tween-80 100 % of control | dose: 400.0 mg/kg/injection, schedule: Q04DX003 (ip), vehicle: saline with Tween-80 90 % of control

CC12CC(C(=O)O)C(C)(C1=O)C(c1ccccc1)=C2c1ccccc1 (configuration not stated)
inactive: [11] 92 % of control | [8] 93 % of control | [9] 97 % of control | [10] 94 % of control

COc1cccc2c1C(=O)c1c(O)c3c(c(O)c1C2=O)C[C@@](O)(C(=O)COC(C)=O)C[C@@H]3OC1CC(N)C(O)C(C)O1 (some centres not stated)
active: dose: 0.08 mg/kg/injection, schedule: Q01DX009 (ip), vehicle: saline sonified 200 % of control | dose: 1.5 mg/kg/injection, schedule: Q01DX009 (ip), vehicle: saline sonified 150 % of control

CS(=O)(=O)/C=C/c1cccnc1
inactive: [8] 101 % of control | [9] 99 % of control | [10] 103 % of control

CCN(CC)CCSc1cc(C)c2ccc(N)nc2n1
inactive: [6] 100 % of control | [7] 106 % of control

N/C=C1\Cc2ccccc2C1=O
inactive: dose: 50.0 mg/kg/injection, schedule: Q01DX009 (ip), vehicle: suspension in saline 95 % of control | dose: 100.0 mg/kg/injection, schedule: Q01DX009 (ip), vehicle: suspension in saline 98 % of control | dose: 200.0 mg/kg/injection, schedule: Q01DX009 (ip), vehicle: suspension in saline 104 % of control

O=C1/C(=C/c2ccccc2)CCC/C1=C\c1ccccc1
inactive: [5] 104 % of control | [1] 104 % of control | [2] 100 % of control

Cc1cc(C)nc(NS(=O)(=O)c2ccc(N=c3c4ccccc4n(-c4ccccc4)c4ccccc34)cc2)n1
inactive: [15] 97 % of control | [16] 109 % of control | [17] 90 % of control

Cc1ccnc(NN=O)c1
active: dose: 6.25 mg/kg/injection, schedule: Q01DX009 (ip), vehicle: water 159 % of control
inactive: dose: 1.5 mg/kg/injection, schedule: Q01DX009 (ip), vehicle: water 109 % of control | dose: 1.56 mg/kg/injection, schedule: Q01DX009 (ip), vehicle: water 100 % of control | dose: 3.0 mg/kg/injection, schedule: Q01DX009 (ip), vehicle: water 109 % of control | dose: 3.12 mg/kg/injection, schedule: Q01DX009 (ip), vehicle: water 117 % of control | dose: 12.5 mg/kg/injection, schedule: Q01DX009 (ip), vehicle: water 87 % of control

NN(C(=O)c1ccccc1)C1CCCCC1
inactive: dose: 12.5 mg/kg/injection, schedule: Q04DX003 (ip), vehicle: saline 95 % of control | dose: 25.0 mg/kg/injection, schedule: Q04DX003 (ip), vehicle: saline 104 % of control | dose: 50.0 mg/kg/injection, schedule: Q04DX003 (ip), vehicle: saline 100 % of control

O=C(O)CC1CC(O)CC/C1=N\Nc1ccc([N+](=O)[O-])cc1[N+](=O)[O-] (configuration not stated)
inactive: [15] 102 % of control | [16] 98 % of control | [17] 91 % of control

CN(C)c1ccc(C(O)Cc2ccc3ccccc3n2)cc1 (configuration not stated)
inactive: [8] 113 % of control | [9] 92 % of control | [10] 92 % of control

O=c1[nH]c2c(ccc3cnccc32)c2c1CCC2
inactive: dose: 12.5 mg/kg/injection, schedule: Q01DX009 (ip), vehicle: saline 122 % of control | dose: 50.0 mg/kg/injection, schedule: Q01DX009 (ip), vehicle: saline 94 % of control

C/C=C/N=NNc1ccccc1
inactive: dose: 100.0 mg/kg/injection, schedule: Q04DX003 (ip), vehicle: saline + Tween-80 + alcohol 111 % of control | dose: 200.0 mg/kg/injection, schedule: Q04DX003 (ip), vehicle: saline + Tween-80 + alcohol 112 % of control | dose: 400.0 mg/kg/injection, schedule: Q04DX003 (ip), vehicle: saline + Tween-80 + alcohol 106 % of control

OC1CC2CC1C1C3C=CC(C3)C21 (configuration not stated)
inactive: dose: 6.25 mg/kg/injection, schedule: Q01DX009 (ip), vehicle: saline with Tween-80 104 % of control | [4] 102 % of control | [5] 102 % of control

Cc1c(NC(=S)Nc2c(C(C)C)cccc2C(C)C)c(=O)n(-c2ccccc2)n1C
inactive: [8] 113 % of control | [9] 106 % of control | [10] 106 % of control

Cc1ccc(CC2CC(=O)NC2=O)cc1 (configuration not stated)
inactive: [12] 105 % of control | [13] 93 % of control | [14] 96 % of control
